Experimental data from patent EP2958933B1, “CROSSLINKED PEPTIDE HYDROGELS” (Agency for Science, Technology and Research, priority 2013, dated 2018).
Peptide text beside a SMILES is read from it.

Key:
[1] = tested on: HepG2 cells; test: Quantification of cell-spread area (ImageJ); format: cell-based; conditions: gel culture in the presence or absence of RGD
Source text: Confocal images after calcein staining were processed using ImageJ (NIH, USA) to obtain the average cell-spread area under various culture conditions. For cells in 3D gel culture, images used for quantification were mergers of several z-stacks to capture the maximum cell-spread area. In all cases, at least three independent experiments with at least two locations selected from each culture were used for averaging.

[2] = Oscillation rheology of casted crosslinkable gels (frequency and amplitude sweep); format: physicochemical; conditions: for stiffness after water soak: without oxidation; for gel stiffness on LK6-doping: final concentration 12 mM, cast-and-soak 0.06% H2O2 two hours
Description: Peptide was dissolved in 200 µL of water +/- H2O2 and filled into custom-made hollow ring casts (diameter ∼1 cm). The ring ends were sealed with parafilm to minimise evaporation and the cast was kept at 25°C for 22 hours before further manipulations.
Rheology: The rheological properties of casted gels were measured with an ARES-G2 (TA Instruments, USA) using the oscillation method. Frequency-sweep studies were performed with ω=0-100 rad/s at strain, γ=0.1%. The gel stiffness was represented by plotting G' against ω. Amplitude-sweep studies were performed beforehand at 1 Hz with γ=0-100%. The LVE limit of the gel was defined as the value of γ when G' first dropped below 90% of the average initial value.
The rheological properties of casted gels were measured with an ARES-G2 (TA Instruments, USA) using the oscillation method. Frequency-sweep studies were performed with ω=0-100 rad/s at strain, γ=0.1%. The gel stiffness was represented by plotting G' against ω. Amplitude-sweep studies were performed beforehand at 1 Hz with γ=0-100%. The LVE limit of the gel was defined as the value of γ when G' first dropped below 90% of the average initial value.

[3] = tested on: HepG2 cells; test: 3D cell culture on gels, calcein live-cell staining; format: cell-based; conditions: purified gels conjugated with different concentrations of RGD, after four days
Description: LK6C +/- CRGD gels were casted directly into 8-chamber Lab-Tek® wells (Nunc, NY, USA) and purified as reported in the SI. 0.5 mL of cell suspension in regular completed DMEM (Invitrogen, Singapore) was either seeded onto the gel or directly into the well (2D control) and incubated for four days. 0.5 µL of calcein-AM (Invitrogen) was then added to the media to identify live cells and images were captured using a confocal microscope (LSM5 DUO, Carl Zeiss, Germany). Beforehand, calcein-AM was verified to stain only live cells as ethanol- and H2O2-treated cells excluded the dye. All images, except for the 2D controls, were presented as mergers of several z-stacks. To further verify the 3D distribution of cells, the gel was embedded vertically in Jung Tissue Freezing Medium (Leica Instruments GmbH, Germany) and 20 µm cross-sectional slices were obtained with a cryostat (CM3050 S, Leica). Sections were mounted with coverslips and imaged as above.
To test for biocompatibility, HepG2 cells were either seeded directly into wells (2D control) or onto purified LK6C gels conjugated with different concentrations of RGD. […] This was repeated with primary rabbit fibroblasts (Figure 35), 3T3 murine fibroblasts (Figure 38) and NIH-3T3 murine fibroblasts (data not shown), confirming the biocompatibility of the gels. With regular media changes, cells remained viable for at least 3 weeks (Figure 38). […]

[4] = tested on: V79; test: Direct contact V79 colony assay (GLP); format: cell-based
[5] = Determination of a suitable gelation concentration; format: physicochemical; conditions: for working concentration at which gels are formed: gels with sufficient mechanical integrity to withstand handling / gel formation
Source text: Reference is now made to the figures, wherein: • Figures 1A to 1M represent a sorted list of some exemplary peptides capable of forming hydrogels. These peptides are examples in which the entire peptide consists of a single linear amphiphilic sequence. Peptides which are forming hydrogels are named with a short code, but their individual sequence is disclosed. The peptides of these examples consist of a sequence of natural amino acids containing 3 to 7 amino acids. The N-terminus is acetylated which removes the charge that would otherwise restrain the amphiphilic character of the peptides. • Figure 2 depicts gelation pictures for peptide based hydrogels at lowest concentrations. • Figure 3 depicts gelation pictures for Ac-AS-6 (Ac-AIVAGS) (L) at concentrations of 5 mg/ml, 10 mg/ml, 15 mg/ml. • Figure 4 depicts a hypothesis of self-assembly from peptide monomers to supramolecular network of condensed fibers. (A) Assembly is believed to initiate with antiparallel pairing of two peptide monomers by changing to α-helical conformations. Subsequently, peptide pairs assemble to fibers and nanostructures. Condensation of peptide fibers to fiber aggregates results in hydrogel formation. • Figure 5 depicts environmental scanning electron microscopy (ESEM) images of hydrogels of Ac-LD6 (Ac-LIVAGD) (L) (10 mg/ml), where Fig. 5A, Fig. 5B and Fig. 5C are images obtained at magnification of 260X, 1000X, 2000X, 2400X, 4000X at a temperature of 4 °C with HV at 10KV. […] 8A), and 450 X (fig. […] (a) A honeycomb porous structure is observed following lyophilization of 20 mg/mL Ac-AD6 (Ac-AIVAGD) (D) hydrogel. The pores are bounded by membranes of condensed fibers as shown in close-up views of 15 mg/mL (b) and 20 mg/mL (c) Ac-ID3 (Ac-IVD) (L) hydrogels. […] Heating the samples to facilitate gelation increased the β type aggregation. […] (e) Far-UV CD spectra of AcID3 (Ac-IVD) at different concentrations. […] (a, b) The high mechanical strengths of different peptide hydrogels at 20 mg/mL concentration was determined by measuring storage moduli (G') as a function of angular frequency under 0.1% strain, at 25°C and 50°C respectively. […] (c) Mechanical strength is a function of concentration, as determined from oscillatory frequency sweep studies using Ac-LD6 (Ac-LIVAGD) (L) under 0.1% strain at 25°C. […] LK6 gels were therefore casted at different concentrations and their stiffness was measured (average ± s.d. of triplicates). As expected, G' values increased with peptide concentration and it was determined that a working concentration of 12 mM afforded gels with sufficient mechanical integrity to withstand handling. […]

[6] = tested on: Fibroblasts isolated from the cornea/sclera of New Zealand White rabbits; test: 3D primary cell culture on gels, calcein live-cell staining; format: cell-based; conditions: purified gels +/- various concentrations of CRGD, four days
Source text: (§1) Reference is now made to the figures, wherein: • Figures 1A to 1M represent a sorted list of some exemplary peptides capable of forming hydrogels. These peptides are examples in which the entire peptide consists of a single linear amphiphilic sequence. Peptides which are forming hydrogels are named with a short code, but their individual sequence is disclosed. The peptides of these examples consist of a sequence of natural amino acids containing 3 to 7 amino acids. […] (a, b) The high mechanical strengths of different peptide hydrogels at 20 mg/mL concentration was determined by measuring storage moduli (G') as a function of angular frequency under 0.1% strain, at 25°C and 50°C respectively. […] (c) Mechanical strength is a function of concentration, as determined from oscillatory frequency sweep studies using Ac-LD6 (Ac-LIVAGD) (L) under 0.1% strain at 25°C. […] LK6 gels were therefore casted at different concentrations and their stiffness was measured (average ± s.d. of triplicates). As expected, G' values increased with peptide concentration and it was determined that a working concentration of 12 mM afforded gels with sufficient mechanical integrity to withstand handling. […]

[7] = tested on: Fibroblasts isolated from the cornea/sclera of New Zealand White rabbits; test: Quantification of cell-spread area (ImageJ); format: cell-based; conditions: various gel cultures, ANOVA p<0.05
Source text: as §1

[8] = tested on: skins of guinea pigs; test: Direct contact Kligman maximization test (GLP, ISO 10993-10); format: in vivo
[9] = Water soak of casted gels (resistance to degradation, shape retention); format: physicochemical; conditions: non-oxidised gels, 24 hours of water soak
[10] = Concentration dependence of self-assembly (aggregates, fibers); format: physicochemical
Source text: An amphiphilic linear sequence of an amphiphilic peptide and/or peptoid disclosed herein, including an amphiphilic linear peptide and/or peptoid, is capable of providing a self assembling α-helical fiber in aqueous solution under physiological conditions. The peptides/peptoids (typically 3-7-mers) in the L- or D-form can self assemble into supramolecular helical fibers which are organized into mesh-like structures mimicking biological substances such as collagen. It has previously been observed in X-ray crystallography that peptides of a length of 3 to 6 amino acids with repetitive alanine containing sequences and an acetylated […] take a helical conformation (Hatakeyama, Y, et al, Angew. Chem. Int. Ed. (2009) 8695-8698). Using peptides with an amphiphilic sequence disclosed herein, Ac-LD6 (L), the formation of aggregates has for example been observed already at 0.1 mg/ml. […] With a formation of fibers occurring under physiological conditions at concentrations below 2 mM a peptide/peptoid disclosed herein is well suited as an injectable hydrogel material that can form a hydrogel under physiological conditions. Also disclosed herein is an amphiphilic linear peptide and/or peptoid as defined above for tissue engineering as well as to a tissue engineering method that involves applying, including injecting a respective amphiphilic linear peptide and/or peptoid.

| Compound | cell spreading vs regular 2D culture [1] | shape and stiffness after water soak ([2]; 12 mM gel, 2 or 24 hours cast-and-soak or 22 hours in situ oxidation with 0.06% H2O2, up to four days of water soak) | stiffness after water soak ([2]; 12 mM gel, 24 hours of water soak) | stiffness after water soak ([2]; 12 mM gel, two hours of water soak) | stiffness (G') following oxidation ([2]; compared to non-oxidised gels, different oxidation regimes) | gel stiffness on LK6-doping [2] | linear viscoelastic (LVE) limit (elasticity), increase following oxidation ([2]; oxidised vs non-oxidised gels, cast-and-soak 2-24 hours 0.06% H2O2 or in situ 24 hours 0.03-0.1% H2O2) | cell viability (calcein staining) [3] | toxicity [4] | material needed for gelation [5] [mg/mL] | working concentration at which gels are formed [5] [mM] | cell viability (calcein staining) [6] | cell-spread area vs 2D culture [7] | sensitization [8] | gel degradation after water soak [9] | concentration at which formation of aggregates is observed [10] [µg/mL] | concentration at which peptide monomers align to form fibrous structures [10] [µg/mL] |
| --- | --- | --- | --- | --- | --- | --- | --- | --- | --- | --- | --- | --- | --- | --- | --- | --- | --- |
| LIVAGKC [LK6C, cross-linkable peptide, LK6 modified with a cysteine residue at the C-terminus; forms hydrogels] | insignificant effects (p>0.05) | maintained their shapes and in fact, became stiffer | broke down and lost their stiffness | could maintain their stiffness | either maintained or increased | relatively stiff | 2.4-3.8 fold | viable | no significant toxicity | 10 | 12 | viable fibroblasts were seen in all cases | spreaded more in 2D culture compared to those in the various gel cultures | no sensitization | – | – | – |
| LIVAGK [LK6] | – | – | – | – | – | relatively stiff | – | – | – | 25 | 12 | – | – | – | completely degraded | – | – |
| CC[C@H](C)[C@H](NC(=O)[C@H](CC(C)C)NC(C)=O)C(=O)N[C@H](C(=O)N[C@@H](C)C(=O)NCC(=O)N[C@@H](CC(=O)O)C(=O)O)C(C)C [Ac-LD6 (L), Ac-LIVAGD-COOH] (Ac-LIVAGD-OH) | – | – | – | – | – | – | – | – | – | – | – | – | – | – | – | 100 | 1000 |
